These results are taken from US20260109721A1, “IONIZABLE CATIONIC LIPIDS INCORPORATING SILICON: SYNTHESIS AND LNP FORMULATION” (priority 2023, published 2026).

Data set [1] deals with HeLa cells. The experiment in a line: Transfection efficiency with Luciferase (SecNLuc) mRNA, Nano-Glo assay (Method A). The class given is cell-based. The conditions noted are these: Luc mRNA, 24 h, luminescence; for Transfection 10 ng mRNA: 10 ng mRNA/well; for Transfection 50 ng mRNA: 50 ng mRNA/well; for Transfection 100 ng mRNA: 100 ng mRNA/well. The method, boiled down: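 LNPs formulated by Method A carried SecNLuc mRNA at 100, 50 or 10 ng/well onto HeLa cells at 80% confluence, in triplicate. After 24 h, secreted NanoLuc in the medium was measured by Nano-Glo luminescence about 3 min after reagent addition.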

The test system of data set [2] is HeLa cells. Nature of the data set: Cell viability assessment with resazurin assay (Method A). Type of data set: cell-based. The method, boiled down:
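HeLa cells after Luc mRNA LNP transfection were incubated 50 min at 37 °C with 0.025 mg/ml resazurin in DMEM/F12 with 10% FCS. Resorufin fluorescence was read at ex 540/em 610 nm, background-subtracted, and expressed as percent of OptiMEM-only controls.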
For orientation: The colour change of resazurin is a common sign of viable cells or microbes.

SMILES strings stand for the structures. Read-outs that look alike come from different tables or passages of the source.

In the case of `CCCCCCCC/C=C\CCCCCCCCOC(=O)C(C)(C)CC(OCCCCCCCC/C=C\CCCCCCCC)O[Si](C)(C)OCCCCCCN(CCO)CCN(CCO)CCCCCCO[Si](C)(C)OC(CC(C)(C)C(=O)OCCCCCCCC/C=C\CCCCCCCC)OCCCCCCCC/C=C\CCCCCCCC` (stereo not drawn) [Example 96, di((Z)-octadec-9-en-1-yl) 14,17-bis(2-hydroxyethyl)-2,2,6,6,25,25,29,29-octamethyl-4,27-bis(((Z)-octadec-9-en-1-yl)oxy)-5,7,24,26-tetraoxa-14,17-diaza-6,25-disilatriacontanedioate], in data set [1], the “Transfection 10 ng mRNA” value is recorded as 3.94E+02, the “Transfection 50 ng mRNA” value amounted to 2.15E+03 and the “Transfection 100 ng mRNA” value is on record as 2.94E+03. The “Cell Viability % (Average metabolic rate over all doses, Resazurin)” value (from here on “Cell Viability %”) in data set [2] (human) was found to be 104%.
Consider `C#CCN(C)CCCCCCO[Si](C)(C)OC(CC(C)(C)C(=O)OCCCCCCCC/C=C\CCCCCCCC)OCCCCCCCC/C=C\CCCCCCCC` (stereo not drawn) [Example 97, (Z)-octadec-9-en-1-yl 4,12,12,16,16-pentamethyl-14-(((Z)-octadec-9-en-1-yl)oxy)-11,13-dioxa-4-aza-12-silaheptadec-1-yn-17-oate], for which, in data set [1], the “Transfection 10 ng mRNA” value was 3.01E+02, the “Transfection 50 ng mRNA” value is on record as 1.34E+03 and the “Transfection 100 ng mRNA” value is 1.28E+03. Further, the “Cell Viability %” value in data set [2] (human) was determined as 109%.
For the molecule `CCCCCCCCCCCOC(=O)CCCCCN(CCO)CCCCCCCC(=O)OC(CCCCCCCC)CCCCCCCC` [SM-102, reference compound], in data set [1], the “Transfection 10 ng mRNA” value was 2.15E+06, the “Transfection 50 ng mRNA” value came out at 7.53E+06 and the “Transfection 100 ng mRNA” value turned out to be 7.61E+06. Also, the “Cell Viability %” value in data set [2] is 91%.
